Test results as given in patent US20250235545A1, “POLYPEPTIDE CONJUGATE AND USE THEREOF” (SHANGHAI CHIXI BIOMEDICAL TECHNOLOGY CO., LTD, priority 2024, published 2025).
≈ marks a conversion by molar mass, not a printed value. Read-outs that look alike come from different tables or passages of the source. Where a SMILES comes first, the peptide text is derived from it. The star is where a group is joined. X6 = CCCCCN(CCc1c2c(nc3ccccc13)-c1cc3c(c(=O)n1C2)COC(=O)[C@]3(O)CC)*; X1 = CC[C@@]1(O)C(=O)OCc2c1cc1n(c2=O)Cc2c-1nc1ccccc1c2CCN(C1CCC1)*; X4 = CCCN(CCc1c2c(nc3ccccc13)-c1cc3c(c(=O)n1C2)COC(=O)[C@]3(O)CC)*; X3 = CC[C@@]1(O)C(=O)OCc2c1cc1n(c2=O)Cc2c-1nc1ccccc1c2CCN(C1CC1)*; Propanoyl(3-maleimido) = O=C1C=CC(=O)N1CCC(=O)*; PEG6 = NCCOCCOCCOCCOCCOCCOCCC(=O)O

Key:
A2780 (ovarian cancer) = experiment: cells; type: cell-based; conditions: CCK8, 48 h; Table 1
Method in brief: (§1)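 Cells seeded at 5,000 cells/well in RPMI1640 or DMEM high-glucose with 10% FBS and 1 mM sodium pyruvate, exposed to graded drug concentrations for 48 h at 37° C., 5% CO2; 0.1% DMSO controls. CCK8 added for ~2 h, absorbance 450 nm; survival rates and IC50 calculated.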

[1] = system: A549 (non-small cell lung cancer); experiment: cells; type: cell-based; conditions: CCK8, 48 h; Table 1
Method in brief: as §1

SJSA-1 (sarcoma tissue) = experiment: cells; type: cell-based; conditions: CCK8, 48 h; Table 1
Method in brief: as §1

[2] = system: SKBR3 (breast cancer tissue); experiment: cells; type: cell-based; conditions: CCK8, 48 h; Table 1
Method in brief: as §1

[3] = system: sarcoma SJSA-1 tumor model; conditions: Table 2
Method in brief: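 SJSA-1 cells (2×10^7, DMEM/10% FBS, under 15 passages) implanted subcutaneously in right chest of female BALB/c nude mice, 6-8 weeks old. At ≥100 mm^3, randomized three per group; dosing once weekly for three weeks, saline as control, day 1 = first treatment.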

[4] = system: colo320 colorectal cancer tumor model
Method in brief: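 Female BALB/c nude mice, 6–8 weeks old, received 7.5×10^6 colo320 cells subcutaneously in the right chest. Once tumors reached at least 120 mm^3 they were randomized three per group. Treatment with test agents or saline control was given once weekly for four weeks.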

[5] = system: sarcoma SJSA-1 tumor model; experiment: Efficacy in animal model of sarcoma SJSA-1, 30 mg/kg once a week for two weeks (Example 40); type: in vivo, BALB/c mice; conditions: 30 mg/kg once a week for two weeks
Method: Test objective: To further compare the antitumor efficacy of different polypeptide Linkers in an animal tumor model of sarcoma SJSA-1.
(§2) Test drug: Polypeptide conjugate and normal saline control group.
The control group was administered normal saline. Administration was performed once a week for two weeks.

[6] = system: A2780 ovarian cancer tumor model; experiment: Efficacy in animal model of A2780 ovarian cancer, 30 mg/kg once a week for two weeks (Example 41); type: in vivo, BALB/c mice
Method: Test objective: To further compare the antitumor efficacy of different polypeptide Linkers in an animal tumor model of A2780 ovarian cancer.
as §2
8×10^6 corresponding cells were injected into right axillas of nude mice subcutaneously. […] The negative control group was administered normal saline. Administration was performed once a week for two weeks.

[7] = MTD determination in mice (Examples 27, 36, 44); type: in vivo; conditions: female, mouse, in vivo; mice, monitored for 14 d; Table 4
Excerpt: Test animals: 6-8 weeks old mice, all female; mice were grouped randomly, with six mice in each group, administered with drugs at different concentration gradients separately and monitored for 14 d. A mouse was euthanized at a loss of 20% of its initial weight and deemed to have died of poisoning.

[8] = Tumor homogenate activation efficiency, ovarian cancer tissue (Examples 28, 37); type: in vitro ADME; conditions: pH 5.0, 37° C., 2 h; Table 5
Method: (§3) Buffer preparation: 50 mM PH buffer (MES), 250 mM NaCl, pH adjusted to 5.0 with 0.5 M of sodium hydroxide.
(§4) The polypeptide conjugate was prepared into a 1 mg/ml solution with pH 5.0 buffer, 100 μg of tumor tissue homogenate was added, (the tumor tissue homogenate was the homogenate of tumor tissues prepared with a Jingxin F6/10 handheld homogenizer), and the solution was placed at 37° C. for 2 h. The tumor tissue homogenate could effectively activate the polypeptide conjugate and release Belotecan, and the activation efficiencies of the drugs in tumor tissues were compared by high-performance liquid chromatography (HPLC) allowing determination of a decrease in the compounds and an increase in Belotecan:
(§5) Release percentage=peak area of Belotecan/total peak area of Belotecan and all other Belotecan-containing compounds
as §4, with “HPLC” for “high-performance liquid chromatography (HPLC)”, “Belotecan: […]” for “Belotecan:”

[9] = Tumor homogenate activation efficiency, sarcoma tissue (Examples 28, 37); type: in vitro ADME; conditions: pH 5.0, 37° C., 2 h; Table 5
Method: as §3, §4, §5
as §4, with “HPLC” for “high-performance liquid chromatography (HPLC)”, “Belotecan: […]” for “Belotecan:”

[10] = Tumor homogenate activation efficiency, breast cancer tissue (Examples 28, 37); type: in vitro ADME; conditions: pH 5.0, 37° C., 2 h; Table 5
Method: as §3, §4, §5
as §4, with “HPLC” for “high-performance liquid chromatography (HPLC)”, “Belotecan: […]” for “Belotecan:”

[11] = Tumor homogenate activation efficiency, non-small cell lung cancer tissue (Examples 28, 37); type: in vitro ADME; conditions: pH 5.0, 37° C., 2 h; Table 5
Method: as §3, §4, §5
as §4, with “HPLC” for “high-performance liquid chromatography (HPLC)”, “Belotecan: […]” for “Belotecan:”

[12] = Tumor homogenate activation efficiency, small cell lung cancer tissue (Example 28); type: in vitro ADME; conditions: pH 5.0, 37° C., 2 h; Table 5
Method: as §3, §4, §5

[13] = Homogenate activation efficiency, heart tissue (Examples 28, 37); type: in vitro ADME; conditions: pH 5.0, 37° C., 2 h; Table 5
[14] = 15 mg/kg once a week for three weeks
[15] = 45 mg/kg once a week for three weeks
[16] = 15 mg/kg once a week for four weeks, Table 3
[17] = 45 mg/kg once a week for four weeks, Table 3
[18] = Table 14 (Example 43), dose 45 mg/kg, once a week for four weeks, BALB/c mice

Compound | IC50 A2780 (ovarian cancer) (A2780 (ovarian cancer)) | IC50 A549 (non-small cell lung cancer) [1] | IC50 SJSA-1 (sarcoma tissue) (SJSA-1 (sarcoma tissue)) | IC50 SKBR3 (breast cancer tissue) [2] | Mouse weight (%) [3, 14] | SJSA-1 (sarcoma tissue) mean tumor volume (mm^3) [3, 14] | SJSA-1 (sarcoma) Growth rate (%) [3, 14] | Mouse weight (%) [3, 15] | SJSA-1 (sarcoma tissue) mean tumor volume (mm^3) [3, 15] | Mouse weight (%) [4, 16] | Mouse weight (%) [4, 17] | Mouse weight (%) on Day 14 [5] | Mouse weight (%) on Day 14 [6] | MTD at 14 d [7] | Percentage of release efficiency (%) Ovarian cancer tissue (A2780) [8] | Percentage of release efficiency (%) Sarcoma tissue (SJSA1) [9] | Percentage of release efficiency (%) Breast cancer tissue (SKBR3) [10] | Percentage of release efficiency (%) Non-small cell lung cancer tissue (A549) [11] | Percentage of release efficiency (%) Small cell lung cancer tissue (NCI-H841) [12] | Percentage of release efficiency (%) Heart tissue [13] | other results
CCCCCN(CCc1c2c(nc3ccccc13)-c1cc3c(c(=O)n1C2)COC(=O)[C@]3(O)CC)C(=O)CNC(=O)[C@H](CC(N)=O)NC(=O)[C@H](C)NC(=O)[C@H](C)NC(=O)CCOCCOCCOCCOCCOCCOCCNC(=O)CCN1C(=O)C=CC1=O [MI-6PEG-AANG-D4] ({Propanoyl(3-maleimido)-PEG6}-AANG-X6) | 4.88 µg/mL (≈ 3.87 µM) | 6.37 µg/mL (≈ 5.05 µM) | 2.52 µg/mL (≈ 2 µM) | 4.54 µg/mL (≈ 3.6 µM) | +27% | 1305.6 mm^3 | 1081.87% | +26% | 994.5 mm^3 | +40% | +18% | +4.1% | +9.6% | 350 mg/kg | 86.7% | 72.4% | 80.7% | 78.7% | 67.2% | 2.4% | SJSA-1 (sarcoma) Growth rate (%) [3, 15]: 842.80%; colo320 (colorectal cancer cell) growth rate (%) [4, 16]: 870.11%; colo320 (colorectal cancer cell) mean tumor volume (mm^3) [4, 16]: 963.7 mm^3; colo320 (colorectal cancer cell) growth rate (%) [4, 17]: 544.80%; colo320 (colorectal cancer cell) mean tumor volume (mm^3) [4, 17]: 603.4 mm^3; SJSA-1 (sarcoma tissue) mean tumor volume (mm^3) Day 1 [5]: 131.57 mm^3; SJSA-1 (sarcoma tissue) mean tumor volume (mm^3) Day 4 [5]: 385.46 mm^3; SJSA-1 (sarcoma tissue) mean tumor volume (mm^3) Day 7 [5]: 607.62 mm^3; SJSA-1 (sarcoma tissue) mean tumor volume (mm^3) Day 10 [5]: 847.33 mm^3; SJSA-1 (sarcoma tissue) growth rate (%) on Day 14 [5]: 941.81%; SJSA-1 (sarcoma tissue) mean tumor volume (mm^3) Day 14 [5]: 1239.14 mm^3; A2780 (ovarian cancer) mean tumor volume (mm^3) Day 1 [6]: 138.58 mm^3; A2780 (ovarian cancer) mean tumor volume (mm^3) Day 4 [6]: 278.49 mm^3; A2780 (ovarian cancer) mean tumor volume (mm^3) Day 7 [6]: 624.53 mm^3; A2780 (ovarian cancer) mean tumor volume (mm^3) Day 10 [6]: 791.18 mm^3; A2780 (ovarian cancer) mean tumor volume (mm^3) Day 14 [6]: 977.54 mm^3; Growth rate (%) of A2780 (ovarian cancer) on Day 14 [6]: 705.40%
CC[C@@]1(O)C(=O)OCc2c1cc1n(c2=O)Cc2c-1nc1ccccc1c2CCN(C(=O)CNC(=O)[C@H](CC(N)=O)NC(=O)[C@H](C)NC(=O)[C@H](C)NC(=O)CCOCCOCCOCCOCCOCCOCCNC(=O)CCN1C(=O)C=CC1=O)C1CCC1 [MI-6PEG-AANG-D7] ({Propanoyl(3-maleimido)-PEG6}-AANG-X1) | 1.21 µg/mL (≈ 0.972 µM) | 1.89 µg/mL (≈ 1.52 µM) | 0.53 µg/mL (≈ 0.426 µM) | 2.64 µg/mL (≈ 2.12 µM) | +31% | – | – | +26% | – | +26% | +31% | +1.6% | +15.6% | 250 mg/kg | 84.5% | 64.3% | 78.8% | 77% | 66.1% | 2% | Mouse weight (%) [4, 18]: +31%
CCCN(CCc1c2c(nc3ccccc13)-c1cc3c(c(=O)n1C2)COC(=O)[C@]3(O)CC)C(=O)CNC(=O)[C@H](CC(N)=O)NC(=O)[C@H](C)NC(=O)[C@H](C)NC(=O)CCOCCOCCOCCOCCOCCOCCNC(=O)CCN1C(=O)C=CC1=O [MI-6PEG-AANG-D3] ({Propanoyl(3-maleimido)-PEG6}-AANG-X4) | 1.80 µg/mL (≈ 1.46 µM) | 3.41 µg/mL (≈ 2.76 µM) | 1.63 µg/mL (≈ 1.32 µM) | 2.42 µg/mL (≈ 1.96 µM) | +29% | 1325.4 mm^3 | 1095.4% | +26% | 1098.2 mm^3 | +31% | +20% | +3.6% | +11.4% | 350 mg/kg | 76.2% | 88.9% | 84.6% | 82.6% | 71.2% | 3.6% | SJSA-1 (sarcoma) Growth rate (%) [3, 15]: 930.68%; colo320 (colorectal cancer cell) growth rate (%) [4, 16]: 985.14%; colo320 (colorectal cancer cell) mean tumor volume (mm^3) [4, 16]: 1091.1 mm^3; colo320 (colorectal cancer cell) growth rate (%) [4, 17]: 481.06%; colo320 (colorectal cancer cell) mean tumor volume (mm^3) [4, 17]: 532.8 mm^3; SJSA-1 (sarcoma tissue) mean tumor volume (mm^3) Day 1 [5]: 132.12 mm^3; SJSA-1 (sarcoma tissue) mean tumor volume (mm^3) Day 4 [5]: 360.28 mm^3; SJSA-1 (sarcoma tissue) mean tumor volume (mm^3) Day 7 [5]: 610.04 mm^3; SJSA-1 (sarcoma tissue) mean tumor volume (mm^3) Day 10 [5]: 833.76 mm^3; SJSA-1 (sarcoma tissue) growth rate (%) on Day 14 [5]: 1002.12%; SJSA-1 (sarcoma tissue) mean tumor volume (mm^3) Day 14 [5]: 1324.00 mm^3; A2780 (ovarian cancer) mean tumor volume (mm^3) Day 1 [6]: 138.55 mm^3; A2780 (ovarian cancer) mean tumor volume (mm^3) Day 4 [6]: 302.74 mm^3; A2780 (ovarian cancer) mean tumor volume (mm^3) Day 7 [6]: 742.51 mm^3; A2780 (ovarian cancer) mean tumor volume (mm^3) Day 10 [6]: 898.06 mm^3; A2780 (ovarian cancer) mean tumor volume (mm^3) Day 14 [6]: 1141.65 mm^3; Growth rate (%) of A2780 (ovarian cancer) on Day 14 [6]: 824.00%
CC[C@@]1(O)C(=O)OCc2c1cc1n(c2=O)Cc2c-1nc1ccccc1c2CCN(C(=O)CNC(=O)[C@H](CC(N)=O)NC(=O)[C@H](C)NC(=O)[C@H](C)NC(=O)CCOCCOCCOCCOCCOCCOCCNC(=O)CCN1C(=O)C=CC1=O)C1CC1 [MI-6PEG-AANG-D6] ({Propanoyl(3-maleimido)-PEG6}-AANG-X3) | 0.77 µg/mL (≈ 0.625 µM) | 1.55 µg/mL (≈ 1.26 µM) | 0.49 µg/mL (≈ 0.398 µM) | 1.81 µg/mL (≈ 1.47 µM) | +24% | – | – | +3% | – | +27% | +17% | −0.6% | +8.5% | 200 mg/kg | 75.9% | 79.9% | 82.1% | 73.1% | 76% | 2.5% | Mouse weight (%) [4, 18]: +17%
